Laboratory results reported in patent US20040214832A1, “Piperazine derivative renin inhibitors” (priority 2003, published 2004).

Target: T1, human renin (Homo sapiens, UniProt P00797)
T1 sequence (P00797 67-406): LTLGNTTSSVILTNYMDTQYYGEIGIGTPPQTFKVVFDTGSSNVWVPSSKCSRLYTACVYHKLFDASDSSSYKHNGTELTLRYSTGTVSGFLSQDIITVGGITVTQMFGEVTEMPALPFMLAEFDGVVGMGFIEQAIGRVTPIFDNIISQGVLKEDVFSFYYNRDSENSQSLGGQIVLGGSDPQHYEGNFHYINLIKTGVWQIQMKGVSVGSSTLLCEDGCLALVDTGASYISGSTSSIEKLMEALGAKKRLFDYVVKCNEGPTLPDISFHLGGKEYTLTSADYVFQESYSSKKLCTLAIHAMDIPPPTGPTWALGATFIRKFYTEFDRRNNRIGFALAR
Experiment: Determination of renin IC50 by tGFP FRET assay
Assay type: biochemical
Settings: Human recombinant renin, tandem GFP substrate 650 nM, 60 min incubation with compound, pH 7.4, 11-point curve
Method in brief: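 Human recombinant renin (final 50.4 μIU) preincubated 60 min with compound (5% DMSO final) in 50 mM HEPES, 1 mM EDTA, 1% PEG 8000, 1 mM DTT, 0.1% BSA, pH 7.4, then tandem-GFP substrate added at 650 nM final. FRET fluorescence read; IC50 from 11-point curves spanning 100 μM–1 pM.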

Structure (SMILES) | IC50 [nM]
CCC(=O)OCCN1CCCc2ccc(OC[C@H]3CNCC(=O)N3c3ccc(OCCCOCc4ccccc4OC)cc3)cc21 [Example 123, Propionic acid 2-[7-([2R]-1-{4-[3-(2-methoxybenzyloxy)-propoxy]-phenyl}-6-oxopiperazin-2-ylmethoxy)-3,4-dihydro-2H-quinolin-1-yl]-ethyl ester] | 9
COc1ccccc1COCCCOc1ccc(N2CCNC[C@@H]2COc2ccc3c(c2)N(CCNC(C)=O)CCC3)cc1 [Example 125, N-{2-[7-([2R]-1-{4-[3-(2-Methoxybenzyloxy)-propoxy]-phenyl}-piperazin-2-ylmethoxy)-3,4-dihydro-2H-quinolin-1-yl]-ethyl}-acetamide] | 0.53
CC(=O)NCCN1CCCc2ccc(OC[C@H]3CNCC(=O)N3c3ccc(OCCCOCc4ccccc4F)cc3)cc21 [Example 126, N-{2-[7-([2R]-1-{4-[3-(2-Fluorobenzyloxy)-propoxy]-phenyl}-6-oxopiperazin-2-ylmethoxy)-3,4-dihydro-2H-quinolin-1-yl]-ethyl}-acetamide] | 5
CCOC(=O)Cn1ccc2ccc(OC[C@H]3CNCC(=O)N3c3ccc(OCCCOCc4ccccc4OC)cc3)cc21 [Example 132, [6-([2R]-1-{4-[3-(2-Methoxybenzyloxy)-propoxy]-phenyl}-6-oxo-piperazin-2-ylmethoxy)-indol-1-yl]-acetic acid ethyl ester] | 6
COC(=O)CCN1CCc2ccc(OC[C@H]3CNCC(=O)N3c3ccc(OCCCOCc4ccccc4OC)cc3)cc21 [Example 133, 3-[6-([2R]-1-{4-[3-(2-Methoxybenzyloxy)-propoxy]-phenyl}-6-oxo-piperazin-2-ylmethoxy)-2,3-dihydro-indol-1-yl]-propionic acid methyl ester] | 9.59

The next compounds have a lower IC50 than those just listed; values first:

IC50 [nM] | Structure (SMILES)
0.35 | COc1ccccc1COCCCOc1ccc(N2C(=O)CNC[C@@H]2COc2ccc3c(c2)N(CCNC(C)=O)CCC3)cc1 [Example 124, N-{2-[7-([2R]-1-{4-[3-(2-Methoxybenzyloxy)-propoxy]-phenyl}-6-oxopiperazin-2-ylmethoxy)-3,4-dihydro-2H-quinolin-1-yl]-ethyl}-acetamide]
0.18 | COCCCN1C(=O)COc2ccc(SC[C@H]3CNCC(=O)N3c3ccc(OCCCOCc4ccccc4OC)cc3)cc21 [Example 128, 6-([2R]-1-{4-[3-(2-Methoxybenzyloxy)-propoxy]-phenyl}-6-oxo-piperazin-2-ylmethylsulfanyl)-4-(3-methoxypropyl)-4H-benzo[1,4]oxazin-3-one]
0.17 | CCOC(=O)CN1C(=O)COc2ccc(SC[C@H]3CNCC(=O)N3c3ccc(OCCCOCc4ccccc4OC)cc3)cc21 [Example 129, [6-([2R]-1-{4-[3-(2-Methoxybenzyloxy)-propoxy]-phenyl}-6-oxo-piperazin-2-ylmethylsulfanyl)-3-oxo-2,3-dihydro-benzo[1,4]oxazin-4-yl]-acetic acid ethyl ester]
